Source: paper PMC11277992, “New Zosteropenillines and Pallidopenillines from the Seagrass-Derived Fungus Penicillium yezoense KMM 4679” (Marine Drugs, 2024)
Like-named read-outs stand apart in the source and are kept apart here.

What was measured:
[1] = test system: CoCl2-treated HEK-293 cells; test: Cytoprotective activity, CoCl2-mimic hypoxia, cell viability (MTT); assay type: cell-based, human; settings: CoCl2 at 500 µM for 24 h
Procedure: The HEK-293 cells were exposed to cobalt chloride (II) at a 500 µM for 1 h and then the compounds were added. After 24 h, the viability of the cells was measured via MTT assay as described earlier.

[2] = test system: CoCl2-treated HEK-293 cells; test: Lipid peroxidation level (MitoCLox) in CoCl2-treated cells; assay type: cell-based, human; settings: toxic effect of CoCl2; MitoCLox fluorescence dye
Procedure: The fluorescence probe MitoCLox (Lumiprobe, Moscow, Russia) was used for the detection of the lipid peroxidation level in CoCl2-treated cells. It was added in the cells for 1 h at a concentration of 200 nM. After 1 h, the cells were washed with PBS and fluorescence was measured in ratiometric mode with λem = 520/590 nm using a PHERAStar FS plate reader (BMG Labtech, Offenburg, Germany). The data were processed with MARS Data Analysis v. 3.01R2 (BMG Labtech, Offenburg, Germany) and calculated as a 520/590 ratio.

[3] = test system: Candida albicans KMM 455; test: Antimicrobial activity, microbial growth in broth (OD620); assay type: cell-based; settings: Candida albicans, KMM455; compound at 100 µM; read-out: Inhibition of Microbial Growth, % of Control, C. albicans
Procedure: (§1) The yeast-like fungus Candida albicans KMM 455 and bacterial strains Staphylococcus aureus ATCC 21027 and Escherichia coli VKPM (B-7935) (Collection of Marine Microorganisms PIBOC FEB RAS) were cultured on solid-medium Mueller–Hinton broth with agar (16.0 g/L) in a Petri dish at 37 °C for 24 h. The assays were performed in 96-well microplates in an appropriate Mueller–Hinton broth. Each well contained 90 µL of a bacterial or yeast-like fungal suspension (10^6 CFU/mL). Then, 10 µL was added of a compound diluted at concentrations from 1.5 µM to 100.0 µM using twofold dilution (DMSO concentration < 1%). Culture plates were incubated overnight at 37 °C, and the OD620 was measured using a Multiskan FC spectrophotometer (Thermo Scientific Inc., Beverly, MA, USA). The antibiotic gentamicin and antifungal agent nitrofungin were used as positive controls at 1 mg/mL; 1% DMSO in PBS served as a negative control. Examination was performed twice and in triplicate. The results were calculated as a percentage of the control data using SigmaPlot 14.0 software.

[4] = test system: Escherichia coli VKPM (B-7935); test: as above; assay type: cell-based; settings: compound at 100 µM, read-out: Inhibition of Microbial Growth, % of Control, E. coli
Procedure: as §1

[5] = test system: Staphylococcus aureus ATCC 21027; test: as above; assay type: cell-based; settings: ATCC21027, compound at 100 µM, read-out: Inhibition of Microbial Growth, % of Control, S. aureus
Procedure: as §1

[6] = test system: normal human kidney cells; test: Cytotoxic activity (MTT assay); assay type: cell-based; settings: 100 µM, 24 h
Procedure: (§2) The influence of compounds 1, 2 and 4–14 on the viability of normal human kidney […] cells, as well as human prostate PC-3, cervical HeLa and breast MCF-7 cancer cells, was measured using the MTT assay after 24 h of treatment.
(§3) The human prostate cancer cells PC-3 and CRL-1435 and the human embryonic kidney cells HEK-293 and CRL-1573TM were purchased from the American Type Culture Collection (ATCC; Manassas, VA, USA). PC-3 and HEK-293 cells were cultured in DMEM medium containing 10% fetal bovine serum (Biolot, St. Petersburg, Russia) and 1% penicillin/streptomycin (Biolot, St. Petersburg, Russia) at 37 °C in a humidified atmosphere with 5% (v/v) CO2. The cells were incubated in cultural flasks until sub-confluent (~80%).
(§4) PC-3 cells (5 × 10^3 cells/well) and HEK 293 cells (8 × 10^3 cells/well) were seeded in a 96-well plate and incubated overnight. Then, compounds were added at concentrations of 1–100 μM and incubated for another 24 h. Cell viability was then determined by the MTT (3-(4,5-dimethylthiazol-2-yl)-2,5-diphenyltetrazolium bromide) method according to the manufacturer’s instructions (Sigma-Aldrich, St. Louis, MO, USA). The absorbance of the converted formazan was measured using a Multiskan FC microplate photometer (Thermo Scientific, Waltham, MA, USA) at λ = 570 nm. The results are presented as percentages of the control data.

[7] = test system: human prostate PC-3 cancer cells; test: Cytotoxic activity (MTT assay); assay type: cell-based; settings: for Cell Viability, % of Control, PC-3: 100 µM, 24 h, MTT; for IC50: Homo sapiens
Procedure: as §3
as §4, with “Then, compounds were added at concentrations of 1–100 μM and incubated for another 24 h.” left out

[8] = test system: cervical HeLa cancer cells; test: Cytotoxic activity (MTT assay); assay type: cell-based, human; settings: for Cell Viability, % of Control, HeLa: 100 µM, 24 h, MTT; for IC50: Homo sapiens, HeLa, read-out: IC50, HeLa cells
[9] = test system: breast MCF-7 cancer cells; test: Cytotoxic activity (MTT assay); assay type: cell-based, human; settings: for Cell Viability, % of Control, MCF-7: 100 µM, 24 h, MTT; for IC50: Homo sapiens
Procedure: as §2
as §4, with “Then, compounds were added at concentrations of 1–100 μM and incubated for another 24 h.” left out

[10] = test system: LPS-stimulated RAW264.7 murine macrophages; design: method as in PMID 28218691; settings: cited from earlier work
[11] = test system: PC-3 cells; test: Colony formation (clonogenic) assay; assay type: cell-based; settings: Homo sapiens, PC-3, 240 h; 10 days; read-out: half-maximal concentration of the inhibition of PC-3 colony formation
Procedure: The influence of compounds on colony formation by PC-3 cells was tested by the clonogenic assay. The concentration of PC-3 cells was 0.33 × 10^3/mL. The cells were incubated for 10 days, and then they were fixed with methanol (25 min), staining with 0.5% solution of crystal violet (25 min) and washing with PBS. The counting of grown colonies was carried out using a BIO-PRINT-Cx4 Edge-Fixed Pad-Container (Vilber, Collegien, France) using Bio-Vision Software user and service manual-v18.01 (Vilber, Collegien, France). The results are presented as colony inhibition in comparison with the control.

[12] = test system: HeLa cells; test: Colony formation (clonogenic) assay; assay type: cell-based; settings: Homo sapiens, 240 h, 10 days, read-out: half-maximal concentration of the inhibition of HeLa colony formation
[13] = test system: MCF-7 cells; test: Colony formation (clonogenic) assay; assay type: cell-based; settings: Homo sapiens, MCF7, 240 h; 10 days; read-out: half-maximal concentration of the inhibition of MCF-7 colony formation
[14] = test system: PC-3 cells; test: Migration (scratch) assay; assay type: cell-based, human; settings: 24 h
Procedure: Silicone 2-well inserts (Ibidi®, Gräfelfing, Germany) were used for formation of a free cell zone in the PC-3 cells’ monolayer. After removing the insert, the gap between the cells was 500 ± 50 μm. The cells were washed twice with PBS after removing the inserts and staining with (5,6)-carboxyfluorescein succinimidyl ester (CFDA SE) (Lumiprobe, Moscow, Russia) fluorescence dye. Then, cells were treated with compound or culture medium only (vehicle control) for 24 h. Cell migration into the wound area was observed under a fluorescence microscope (MIB-2-FL; LOMO, St. Petersburg, Russia) with objective 10× magnification.

[15] = test system: HeLa cells; test: Migration (scratch) assay; assay type: cell-based, human; settings: 24 h
[16] = test system: MCF-7 cells; test: Migration (scratch) assay; assay type: cell-based, human; settings: 24 h
[17] = test system: MCF-7 cells; test: Drug combination study with doxorubicin (MTT); assay type: cell-based, human; settings: 24 h
[18] = test system: HeLa cells; test: Cell viability after pretreatment with 4-OHT (estrogen receptor inhibitor); assay type: cell-based, human; settings: 14 at 75 µM, 4-OHT at 10 µM
Procedure: (§5) To detect the possible target of 14, we used 4-hydroxytamoxifen (4-OHT) at a concentration of 10 µM as a known inhibitor of estrogen receptors (ERs), and the data are presented in Figure 14.
(§6) Figure 14 The influence of 14 (at a 75 µM) on cell viability in the presence of 4-OHT (at 10 µM). Data are presented as the mean ± SEM. * p-value ≤ 0.05 considered significant.

[19] = test system: MCF-7 cells; test: as above; assay type: cell-based, human; settings: 14 at 75 µM, 4-OHT at 10 µM
Procedure: as §5, §6

[20] = test system: PC-3 cells; test: as above; assay type: cell-based, human; settings: 14 at 75 µM, 4-OHT at 10 µM
Procedure: as §5, §6

## [Cl-].[Cl-].[Co+2] [CoCl2, cobalt (II) chloride, reference compound]
[1]
  decrease of the viability of HEK-293 cells: 75%
[2]
  lipid peroxide levels in HEK-293 cells: significant increase

## C[C@@]1(O)C=C[C@H]2C[C@@H](CO)CC[C@@H]2[C@H]1C(=O)CCO [Compound 12, zosteropenilline J]
[3]
  inhibition of growth at 100 µM: 6.61 ± 1.12%
[4]
  inhibition of growth at 100 µM: 0%
[5]
  inhibition of growth at 100 µM: 20.3 ± 1.2%
[6]
  Cell Viability, % of Control, HEK-298: 87.01 ± 2.71 % of Control
[7]
  Cell Viability, % of Control, PC-3: 87.01 ± 2.71 % of Control
[8]
  Cell Viability, % of Control, HeLa: 66.70 ± 6.64 % of Control
[9]
  Cell Viability, % of Control, MCF-7: 82.77 ± 1.36 % of Control
[10]
  effect on NO levels: downregulate

## CC(=O)OCCC(=O)[C@@H]1[C@H]2CC[C@H](C)[C@@H](O)[C@@H]2C=C[C@@]1(C)O [Compound 14, 1-acetylpallidopenilline A]
[3]
  inhibition of growth at 100 µM: 0%
[4]
  inhibition of growth at 100 µM: 0%
[5]
  inhibition of growth at 100 µM: 31.6 ± 7.8%
[6]
  Cell Viability, % of Control, HEK-298: 96.92 ± 4.83 % of Control
[7]
  Cell Viability, % of Control, PC-3: 45.91 ± 0.67 % of Control
[7]; PC-3, 24 h, read-out: IC50, PC-3 cell viability
  IC50: 94.2 ± 1.13 µM
[7]; PC-3, 48 h, read-out: IC50, PC-3 cells
  IC50: 63.4 µM
[7]; PC-3, 72 h, read-out: IC50, PC-3 cells
  IC50: 48.5 µM
[8]
  Cell Viability, % of Control, HeLa: 53.44 ± 2.14 % of Control
[8]; 48 h
  IC50: 82.7 µM
[8]; 72 h
  IC50: 73.2 µM
[9]
  Cell Viability, % of Control, MCF-7: 23.71 ± 1.05 % of Control
[9]; MCF7, 24 h, read-out: half-maximal inhibition of the viability of MCF-7 cells
  IC50: 72 ± 2.48 µM
[9]; MCF7, 48 h, read-out: IC50, MCF-7 cells
  IC50: 54.7 µM
[9]; MCF7, 72 h, read-out: IC50, MCF-7 cells
  IC50: 41 µM
[11]
  IC50: 2.48 ± 0.11 µM
[12]
  IC50: 0.96 ± 0.02 µM
[13]
  IC50: 0.66 µM
[14]
  migration of PC-3 cells: did not affect
[15]
  migration of HeLa cells: significantly inhibited
[16]
  migration of MCF-7 cells: significantly inhibited
[17]; combination of 14 with doxorubicin at 0.1 µM
  decrease of MCF-7 cell viability: 50%
[17]; combination of 14 with doxorubicin at 1 µM
  toxicity to MCF-7 cells compared with doxorubicin alone: more toxic
[18]
  cytotoxicity of 14 after pretreatment with 4-OHT versus 14 alone: No significant differences
[19]
  cytotoxicity of 14 after pretreatment with 4-OHT versus 14 alone: significant decrease in the cytotoxicity
[20]
  cytotoxicity of 14 after pretreatment with 4-OHT versus 14 alone: No significant differences

## C[C@]12C=C[C@H]3C[C@@H](CO)CC[C@@H]3[C@H]1C(=O)CCO2 [zosteropenilline B]
[10]
  effect on NO levels: downregulate

## CC1=C[C@H](O)[C@H]2[C@H](O)[C@@H](C)CC[C@@H]2[C@H]1C(=O)CCO [zosteropenilline H]
[10]
  effect on NO levels: downregulate
